From article PMC9030254, “Target Hopping from Protein Kinases to PXR: Identification of Small-Molecule Protein Kinase Inhibitors as Selective Modulators of Pregnane X Receptor from TüKIC Library” (Cells, 2022)

Experiments:
Experiment in all cases: Kinase profiling
Assay type in all cases: biochemical
PKCeta = biological target: T1, PKCeta (Homo sapiens, UniProt P24723)
T1 construct: purchased ProQinase (Freiburg, Germany)
Method: (§1) The analysis was performed by ProQinase (Freiburg, Germany).

RIPK5 = biological target: T2, RIPK5 (Homo sapiens, UniProt Q6XUX3)
T2 construct: purchased ProQinase (Freiburg, Germany)
T2 sequence (Q6XUX3 1-929): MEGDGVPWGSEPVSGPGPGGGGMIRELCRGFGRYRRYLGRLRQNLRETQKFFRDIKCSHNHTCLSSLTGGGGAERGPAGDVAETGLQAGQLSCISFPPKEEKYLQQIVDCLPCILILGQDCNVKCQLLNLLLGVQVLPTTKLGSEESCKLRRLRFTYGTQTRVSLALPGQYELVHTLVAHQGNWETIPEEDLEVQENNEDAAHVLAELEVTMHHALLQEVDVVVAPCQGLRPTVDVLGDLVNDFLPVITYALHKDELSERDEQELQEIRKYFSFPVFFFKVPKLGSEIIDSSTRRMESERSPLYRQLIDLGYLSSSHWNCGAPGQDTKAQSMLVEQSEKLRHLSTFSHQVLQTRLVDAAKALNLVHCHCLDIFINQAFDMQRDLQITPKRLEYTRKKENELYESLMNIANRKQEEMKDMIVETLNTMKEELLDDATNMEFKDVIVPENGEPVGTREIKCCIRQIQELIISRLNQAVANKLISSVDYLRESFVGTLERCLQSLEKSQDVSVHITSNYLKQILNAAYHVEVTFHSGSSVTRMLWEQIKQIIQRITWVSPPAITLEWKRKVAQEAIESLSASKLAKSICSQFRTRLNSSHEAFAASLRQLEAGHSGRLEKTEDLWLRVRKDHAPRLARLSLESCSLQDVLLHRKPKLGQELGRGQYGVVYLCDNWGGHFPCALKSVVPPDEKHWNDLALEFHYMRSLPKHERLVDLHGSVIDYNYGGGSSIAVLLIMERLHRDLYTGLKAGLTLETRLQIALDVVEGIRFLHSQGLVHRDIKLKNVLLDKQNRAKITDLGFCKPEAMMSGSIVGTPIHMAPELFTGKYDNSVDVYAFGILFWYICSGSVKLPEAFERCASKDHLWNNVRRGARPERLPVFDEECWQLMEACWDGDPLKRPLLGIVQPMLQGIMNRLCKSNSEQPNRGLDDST
Method: as §1

DYRK2 = biological target: T3, DYRK2 (Homo sapiens, UniProt Q92630)
T3 construct: purchased ProQinase (Freiburg, Germany)
T3 sequence (Q92630 1-601): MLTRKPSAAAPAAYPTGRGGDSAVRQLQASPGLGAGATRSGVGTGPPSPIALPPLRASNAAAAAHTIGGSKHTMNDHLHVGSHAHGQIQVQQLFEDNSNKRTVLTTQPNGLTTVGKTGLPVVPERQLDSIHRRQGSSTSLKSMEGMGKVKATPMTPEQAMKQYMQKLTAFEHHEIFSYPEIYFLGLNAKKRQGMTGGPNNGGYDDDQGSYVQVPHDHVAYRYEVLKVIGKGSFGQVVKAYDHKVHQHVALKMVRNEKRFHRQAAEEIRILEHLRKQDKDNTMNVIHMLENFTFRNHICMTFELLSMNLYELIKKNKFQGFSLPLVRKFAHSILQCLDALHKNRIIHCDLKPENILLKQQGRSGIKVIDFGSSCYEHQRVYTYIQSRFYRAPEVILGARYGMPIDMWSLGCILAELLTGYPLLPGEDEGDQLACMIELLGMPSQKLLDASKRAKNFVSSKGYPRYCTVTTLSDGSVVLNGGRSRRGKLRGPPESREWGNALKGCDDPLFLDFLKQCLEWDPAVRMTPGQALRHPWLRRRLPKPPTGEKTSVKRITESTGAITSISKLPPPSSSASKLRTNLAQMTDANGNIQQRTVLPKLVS
Method: as §1

ALK = biological target: T4, ALK (Homo sapiens, UniProt Q9UM73)
T4 construct: purchased ProQinase (Freiburg, Germany)
T4 sequence (Q9UM73 19-1620): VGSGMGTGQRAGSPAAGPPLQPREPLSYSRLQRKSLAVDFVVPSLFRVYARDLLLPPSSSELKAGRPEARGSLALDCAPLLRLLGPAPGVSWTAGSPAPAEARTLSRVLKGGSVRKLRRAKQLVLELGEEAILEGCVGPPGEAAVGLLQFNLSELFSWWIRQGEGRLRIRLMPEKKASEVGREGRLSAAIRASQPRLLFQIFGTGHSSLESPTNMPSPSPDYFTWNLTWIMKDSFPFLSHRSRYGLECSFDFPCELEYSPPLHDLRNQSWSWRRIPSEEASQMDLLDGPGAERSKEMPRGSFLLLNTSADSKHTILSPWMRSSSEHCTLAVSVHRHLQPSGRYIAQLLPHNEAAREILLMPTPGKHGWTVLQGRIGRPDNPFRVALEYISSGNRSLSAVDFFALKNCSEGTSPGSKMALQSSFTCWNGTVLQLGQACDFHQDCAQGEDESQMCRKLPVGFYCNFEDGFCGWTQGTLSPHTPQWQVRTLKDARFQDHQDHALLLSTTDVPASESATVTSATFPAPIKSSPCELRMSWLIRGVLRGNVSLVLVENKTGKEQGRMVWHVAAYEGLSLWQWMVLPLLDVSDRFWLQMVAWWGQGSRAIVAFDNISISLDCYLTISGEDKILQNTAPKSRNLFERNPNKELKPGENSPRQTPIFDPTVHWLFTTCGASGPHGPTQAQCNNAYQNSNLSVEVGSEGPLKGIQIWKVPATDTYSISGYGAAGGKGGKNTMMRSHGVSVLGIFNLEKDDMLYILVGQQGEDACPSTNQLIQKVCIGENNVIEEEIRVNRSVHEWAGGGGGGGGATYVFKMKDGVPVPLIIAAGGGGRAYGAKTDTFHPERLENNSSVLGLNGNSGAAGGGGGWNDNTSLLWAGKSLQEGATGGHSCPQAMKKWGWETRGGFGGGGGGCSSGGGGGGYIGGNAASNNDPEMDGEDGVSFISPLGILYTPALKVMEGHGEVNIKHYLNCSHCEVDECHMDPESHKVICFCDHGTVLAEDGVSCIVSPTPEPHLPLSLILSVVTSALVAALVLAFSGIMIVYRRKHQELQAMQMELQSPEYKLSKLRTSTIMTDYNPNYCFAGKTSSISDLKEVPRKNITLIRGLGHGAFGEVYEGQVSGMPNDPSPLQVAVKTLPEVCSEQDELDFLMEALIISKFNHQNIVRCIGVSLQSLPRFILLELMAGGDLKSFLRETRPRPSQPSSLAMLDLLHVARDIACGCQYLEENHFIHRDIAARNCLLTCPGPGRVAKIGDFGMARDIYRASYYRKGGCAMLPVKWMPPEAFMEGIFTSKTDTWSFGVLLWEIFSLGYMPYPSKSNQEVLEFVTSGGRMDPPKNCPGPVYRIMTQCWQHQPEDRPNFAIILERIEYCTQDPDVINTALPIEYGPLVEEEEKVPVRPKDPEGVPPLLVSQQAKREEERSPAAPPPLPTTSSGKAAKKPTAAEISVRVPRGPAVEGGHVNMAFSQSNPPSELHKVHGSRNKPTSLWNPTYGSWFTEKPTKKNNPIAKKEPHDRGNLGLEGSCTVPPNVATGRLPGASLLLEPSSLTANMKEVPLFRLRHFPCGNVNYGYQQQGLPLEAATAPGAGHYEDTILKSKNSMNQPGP
Method: as §1

MKNK2 = biological target: T5, MKNK2 (Homo sapiens, UniProt Q9HBH9)
T5 construct: purchased ProQinase (Freiburg, Germany)
T5 sequence (Q9HBH9 whole entry): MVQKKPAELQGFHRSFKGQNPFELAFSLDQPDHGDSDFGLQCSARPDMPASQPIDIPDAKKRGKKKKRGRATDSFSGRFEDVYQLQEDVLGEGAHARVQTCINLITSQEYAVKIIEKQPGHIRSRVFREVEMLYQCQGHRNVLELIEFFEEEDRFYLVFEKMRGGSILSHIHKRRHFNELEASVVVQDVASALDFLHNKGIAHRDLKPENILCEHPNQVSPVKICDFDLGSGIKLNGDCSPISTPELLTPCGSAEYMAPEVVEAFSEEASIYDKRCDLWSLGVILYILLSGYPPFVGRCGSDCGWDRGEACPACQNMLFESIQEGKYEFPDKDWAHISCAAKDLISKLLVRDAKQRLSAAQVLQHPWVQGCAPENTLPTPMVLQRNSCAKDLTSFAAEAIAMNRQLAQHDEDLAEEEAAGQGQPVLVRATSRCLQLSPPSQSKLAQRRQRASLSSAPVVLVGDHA
Method: as §1

BLK = biological target: T6, BLK (Homo sapiens, UniProt P51451)
T6 construct: purchased ProQinase (Freiburg, Germany)
T6 sequence (P51451 whole entry): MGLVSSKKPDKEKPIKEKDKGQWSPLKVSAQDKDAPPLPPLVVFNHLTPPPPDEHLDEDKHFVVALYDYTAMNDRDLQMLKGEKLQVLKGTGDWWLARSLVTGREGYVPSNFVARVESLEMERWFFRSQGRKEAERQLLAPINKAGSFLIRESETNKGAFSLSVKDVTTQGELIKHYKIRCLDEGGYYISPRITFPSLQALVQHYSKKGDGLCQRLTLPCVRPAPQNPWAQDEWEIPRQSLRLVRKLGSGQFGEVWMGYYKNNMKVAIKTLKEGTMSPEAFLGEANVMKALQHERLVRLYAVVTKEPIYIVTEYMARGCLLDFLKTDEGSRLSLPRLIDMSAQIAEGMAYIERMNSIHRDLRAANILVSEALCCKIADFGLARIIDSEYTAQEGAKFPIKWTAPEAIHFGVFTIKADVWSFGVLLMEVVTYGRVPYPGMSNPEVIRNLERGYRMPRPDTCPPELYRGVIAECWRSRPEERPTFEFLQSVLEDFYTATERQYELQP
Method: as §1

CK1delta = biological target: T7, CK1delta (Homo sapiens, UniProt P48730)
T7 construct: purchased ProQinase (Freiburg, Germany)
T7 sequence (P48730 whole entry): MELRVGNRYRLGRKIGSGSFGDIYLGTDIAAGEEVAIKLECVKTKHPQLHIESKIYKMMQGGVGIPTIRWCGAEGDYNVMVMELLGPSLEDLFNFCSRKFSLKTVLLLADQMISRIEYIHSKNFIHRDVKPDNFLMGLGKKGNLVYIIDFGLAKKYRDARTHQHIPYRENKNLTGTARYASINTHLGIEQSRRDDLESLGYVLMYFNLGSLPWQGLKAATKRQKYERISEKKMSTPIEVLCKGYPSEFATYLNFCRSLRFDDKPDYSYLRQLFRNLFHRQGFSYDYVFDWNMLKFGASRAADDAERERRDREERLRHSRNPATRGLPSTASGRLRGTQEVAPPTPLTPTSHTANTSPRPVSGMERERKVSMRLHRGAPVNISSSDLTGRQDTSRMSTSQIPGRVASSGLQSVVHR
Method: as §1

GRK5 = biological target: T8, GRK5 (Homo sapiens, UniProt P34947)
T8 construct: purchased ProQinase (Freiburg, Germany)
T8 sequence (P34947 whole entry): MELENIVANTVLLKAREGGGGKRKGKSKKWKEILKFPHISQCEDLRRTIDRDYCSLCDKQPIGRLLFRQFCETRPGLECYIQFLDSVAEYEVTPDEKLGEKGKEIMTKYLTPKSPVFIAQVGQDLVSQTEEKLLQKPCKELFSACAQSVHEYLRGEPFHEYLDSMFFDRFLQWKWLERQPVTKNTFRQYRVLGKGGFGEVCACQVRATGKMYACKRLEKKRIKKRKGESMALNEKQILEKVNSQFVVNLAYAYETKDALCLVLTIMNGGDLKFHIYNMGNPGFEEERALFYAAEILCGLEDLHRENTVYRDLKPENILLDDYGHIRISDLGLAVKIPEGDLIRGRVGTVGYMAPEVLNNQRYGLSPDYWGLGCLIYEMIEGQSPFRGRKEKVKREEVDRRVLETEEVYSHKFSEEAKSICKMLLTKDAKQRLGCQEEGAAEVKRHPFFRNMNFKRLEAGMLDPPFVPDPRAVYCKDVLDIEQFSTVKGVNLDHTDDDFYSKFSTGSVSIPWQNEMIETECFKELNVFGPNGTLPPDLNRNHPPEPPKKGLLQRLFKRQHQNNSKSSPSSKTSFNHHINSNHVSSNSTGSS
Method: as §1

BRSK2 = biological target: T9, BRSK2 (Homo sapiens, UniProt Q8IWQ3)
T9 construct: purchased ProQinase (Freiburg, Germany)
T9 sequence (Q8IWQ3 1-736): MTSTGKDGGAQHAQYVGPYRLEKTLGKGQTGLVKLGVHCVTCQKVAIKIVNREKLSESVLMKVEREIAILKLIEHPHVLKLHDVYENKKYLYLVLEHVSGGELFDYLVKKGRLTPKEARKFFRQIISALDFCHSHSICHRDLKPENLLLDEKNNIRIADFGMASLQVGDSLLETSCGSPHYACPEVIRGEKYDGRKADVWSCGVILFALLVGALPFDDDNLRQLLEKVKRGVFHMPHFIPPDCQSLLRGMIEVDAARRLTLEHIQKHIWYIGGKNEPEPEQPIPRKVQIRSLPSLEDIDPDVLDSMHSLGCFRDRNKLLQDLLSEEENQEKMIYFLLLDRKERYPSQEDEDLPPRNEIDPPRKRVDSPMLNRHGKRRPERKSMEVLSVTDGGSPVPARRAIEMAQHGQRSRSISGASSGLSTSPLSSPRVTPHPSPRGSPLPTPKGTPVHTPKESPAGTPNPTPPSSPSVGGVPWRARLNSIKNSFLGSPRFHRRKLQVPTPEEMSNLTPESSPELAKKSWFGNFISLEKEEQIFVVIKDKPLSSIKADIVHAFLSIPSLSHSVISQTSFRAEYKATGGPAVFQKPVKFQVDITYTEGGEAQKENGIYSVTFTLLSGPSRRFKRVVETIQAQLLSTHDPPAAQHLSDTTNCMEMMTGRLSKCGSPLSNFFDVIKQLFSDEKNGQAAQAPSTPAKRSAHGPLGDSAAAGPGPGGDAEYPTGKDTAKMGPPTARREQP
Method: as §1

p38alpha = biological target: T10, p38alpha (Homo sapiens, UniProt Q16539)
T10 construct: purchased ProQinase (Freiburg, Germany)
Method: as §1

BRAF = biological target: T11, BRAF (Homo sapiens, UniProt P15056)
T11 construct: purchased ProQinase (Freiburg, Germany)
T11 sequence (P15056 whole entry): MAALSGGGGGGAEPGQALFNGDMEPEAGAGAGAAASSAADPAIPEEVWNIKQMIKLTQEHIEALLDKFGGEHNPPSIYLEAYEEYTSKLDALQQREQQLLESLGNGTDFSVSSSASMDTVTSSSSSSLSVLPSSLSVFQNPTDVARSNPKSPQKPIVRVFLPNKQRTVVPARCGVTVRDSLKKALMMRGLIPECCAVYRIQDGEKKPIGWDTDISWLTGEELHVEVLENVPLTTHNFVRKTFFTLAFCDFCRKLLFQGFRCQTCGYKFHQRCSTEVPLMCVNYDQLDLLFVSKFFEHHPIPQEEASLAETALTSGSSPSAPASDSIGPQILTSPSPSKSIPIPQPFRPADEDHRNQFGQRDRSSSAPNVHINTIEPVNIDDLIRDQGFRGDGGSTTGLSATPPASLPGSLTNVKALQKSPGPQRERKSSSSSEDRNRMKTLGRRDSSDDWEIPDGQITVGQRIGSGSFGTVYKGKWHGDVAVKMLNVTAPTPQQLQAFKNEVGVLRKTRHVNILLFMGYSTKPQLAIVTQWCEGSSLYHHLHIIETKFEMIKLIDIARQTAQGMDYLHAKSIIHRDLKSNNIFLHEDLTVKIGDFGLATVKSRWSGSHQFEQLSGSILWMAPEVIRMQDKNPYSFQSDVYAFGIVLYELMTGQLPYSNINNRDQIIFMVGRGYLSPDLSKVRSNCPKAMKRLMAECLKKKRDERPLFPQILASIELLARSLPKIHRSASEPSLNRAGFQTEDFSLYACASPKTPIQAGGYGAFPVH
Method: as §1

T1 sequence (P24723 whole entry): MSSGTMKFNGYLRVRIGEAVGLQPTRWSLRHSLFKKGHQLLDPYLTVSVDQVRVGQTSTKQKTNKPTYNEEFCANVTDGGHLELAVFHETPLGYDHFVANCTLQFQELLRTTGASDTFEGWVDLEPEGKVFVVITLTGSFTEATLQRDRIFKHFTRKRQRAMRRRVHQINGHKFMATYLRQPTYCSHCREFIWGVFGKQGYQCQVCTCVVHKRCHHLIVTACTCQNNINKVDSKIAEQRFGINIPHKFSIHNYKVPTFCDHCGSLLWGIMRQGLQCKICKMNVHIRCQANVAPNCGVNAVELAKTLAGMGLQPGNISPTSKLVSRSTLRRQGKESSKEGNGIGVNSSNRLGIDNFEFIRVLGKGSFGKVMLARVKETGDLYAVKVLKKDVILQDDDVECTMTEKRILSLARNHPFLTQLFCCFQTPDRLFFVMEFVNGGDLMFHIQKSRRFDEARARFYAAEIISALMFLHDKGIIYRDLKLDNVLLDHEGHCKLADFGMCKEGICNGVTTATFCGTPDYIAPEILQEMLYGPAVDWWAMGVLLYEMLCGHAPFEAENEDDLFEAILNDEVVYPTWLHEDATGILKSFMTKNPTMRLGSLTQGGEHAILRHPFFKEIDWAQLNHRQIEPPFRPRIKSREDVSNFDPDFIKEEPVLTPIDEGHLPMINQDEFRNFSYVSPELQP

Compound	Residual activity (PKCeta; 1.0E-05 M)	Residual activity (PKCeta; 1.0E-06 M)	Residual activity (RIPK5; 1.0E-05 M)	Residual activity (RIPK5; 1.0E-06 M)	Residual activity (DYRK2; 1.0E-05 M)	Residual activity (DYRK2; 1.0E-06 M)	Residual activity (ALK; 1.0E-05 M)	Residual activity (ALK; 1.0E-06 M)	Residual activity (MKNK2; 1.0E-05 M)	Residual activity (MKNK2; 1.0E-06 M)	Residual activity (BLK; 1.0E-05 M)	Residual activity (BLK; 1.0E-06 M)	Residual activity (CK1delta; 1.0E-05 M)	Residual activity (CK1delta; 1.0E-06 M)	Residual activity (GRK5; 1.0E-05 M)	Residual activity (GRK5; 1.0E-06 M)	Residual activity (BRSK2; 1.0E-05 M)	Residual activity (BRSK2; 1.0E-06 M)	Residual activity (p38alpha; 1.0E-05 M)	Residual activity (p38alpha; 1.0E-06 M)	also measured
O=C(Cc1ccccc1)Nc1ccc(F)c(Nc2ccc3c(c2)CCCCC3=O)c1 [Compound 100]	115 % of control	116 % of control	99 % of control	100 % of control	91 % of control	89 % of control	72 % of control	86 % of control	115 % of control	112 % of control	110 % of control	118 % of control	106 % of control	110 % of control	106 % of control	104 % of control	99 % of control	113 % of control	73 % of control	78 % of control	inhibition at 10 µM (BRAF): ≥ 50%; Residual activity (BRAF; 1.0E-05 M): 25 % of control; Residual activity (BRAF; 1.0E-06 M): 58 % of control
O=C(Nc1ccc(F)c(Nc2ccc3c(c2)CCCCC3=O)c1)c1cccc(F)c1 [Compound 109]	110 % of control	116 % of control	100 % of control	101 % of control	92 % of control	98 % of control	92 % of control	95 % of control	107 % of control	104 % of control	82 % of control	82 % of control	15 % of control	23 % of control	103 % of control	102 % of control	100 % of control	109 % of control	4 % of control	17 % of control	inhibition at 1 µM (CK1delta; 1 µM, read-out: inhibition of CK1-δ): ≥ 50%; inhibition at 10 µM (CK1delta; 10 µM, read-out: inhibition of CK1-δ): ≥ 50%; inhibition at 1 µM (p38alpha; 1 µM, read-out: inhibition of p38α): ≥ 50%; inhibition at 10 µM (p38alpha; 10 µM, read-out: inhibition of p38α): ≥ 50%; inhibition at 10 µM (BRAF): ≥ 50%; Residual activity (BRAF; 1.0E-05 M): 39 % of control; Residual activity (BRAF; 1.0E-06 M): 67 % of control
